Results published in patent US20220242846A1, “ISOINDOLINONE COMPOUNDS” (Monte Rosa Therapeutics AG, priority 2019, published 2022).
Like-named read-outs stand apart in the source and are kept apart here.

Assays:
[1] = biological target: T1, Full length wild-type cereblon CRBN (Homo sapiens, UniProt Q96SW2); test: Fluorescence polarization (FP) assay indicating cereblon binding; conditions: CRBN 80.0 nM, fluorescent probe 5 nM, FP measured after 12 hours; read-out: rFP IC50
T1 construct: Full length wild-type cereblon CRBN (80.0 nM, 10 μL) was incubated in assay buffer
Description: Protocol for Fluorescent Polarization Assay
Compound activity was monitored in a fluorescence polarization (FP) homogeneous assay using 1-[5-({2-[2-(2-{[2-(2,6-dioxopiperidin-3-yl)-1,3-dioxo-2,3-dihydro-1H-isoindol-4-yl]oxy}acetamido)ethoxy]ethyl}carbamoyl)pentyl]-3,3-dimethyl-2-[(1E,3E)-5-[(2E)-1,3,3-trimethyl-5-sulfo-2,3-dihydro-1H-indol-2-ylidene]penta-1,3-dien-1-yl]-3H-indol-1-ium-5-sulfonate as a fluorescent probe. Unless otherwise stated, all reagents were purchased from Sigma Aldrich. Enzymatic reactions were conducted in Perkin-Elmer Black 384 well ProxiPlate Plus (catalogue no. 6008269) in 10 μL total volume. Full length wild-type cereblon CRBN (80.0 nM, 10 μL) was incubated in assay buffer containing 20 mM HEPES (pH 8.0), […], 0.5 mM TCEP and 0.05% Tween 20 in the presence or absence of compound (300 nL). Inhibitors were stored as 10 mM DMSO stocks in an inert environment (low humidity, dark, low oxygen, room temperature) using the Storage Pod System. Compounds and DMSO were dispensed using the Echo E5XX (Labcyte Inc. USA) to give concentrations from 300 to 0.937 or 3000 to 9.3 nM in a 12 data point curve. […] Following incubation at room temperature for […], the assay was initiated by dispensing the probe to a final concentration of 5 nM (2.5 nL of a 20 μM stock) using the Echo E5XX. FP was measured after a period of 12 hours using a Pherastar plate reader (BMG Labtech, Germany) exciting at 590 nm and measuring the amount of parallel and perpendicular light at 675 nm. The FP signal was subsequently normalized to the no-compound control (i.e., DMSO). Analysis and IC50 values were derived using Dotmatics (Dotmatics UK) software.

GSPT1 = GSPT1 (Homo sapiens, UniProt P15170+Q96SW2); test: Immunofluorescence assay for GSPT1 degradation in CAL-51 cells; type: cell-based; parameters: CAL-51 cells were purchased from DSMZ (cat. Number ACC302); endogenous in cells; host or cells: CAL-51 (DSMZ ACC302); conditions: compound treatment 6 hours
Method: CAL-51 cells were purchased from DSMZ (cat. Number ACC302), sub-cultured in 90% Dulbecco's MEM (4.5 g/L glucose, Gibco 11965) +10% heat inactivated FBS (BioConcept, 2-01F136I) and incubated at 37° C., 5% CO2. For the assay, imaging microtiterplate Cell Carrier 96 Ultra (Perkin Elmer 6055302) were pre-coated with Fibronectin (Sigma F085, 300 at 0.2 μg/ml) in PBS (1000, Gibco 14190) for 45 min at room temperature, rinsed with PBS and CAL-51 cells (30K cells/well) were plated and let to adhere overnight. Cells were treated with compounds typically using a serial dilution ranging from 30 μM to 0.1 nM for 6 hours. Compounds were stored at 10 mM DMSO stocks. Vehicle (DMSO), positive (CC-885, 10 μM) and rescue controls (positive control plus 0.2 μM bortezomib) were also included at this stage. Cells were subsequently rinsed with PBS and fixed in 10% Formalin solution (50 μl, Sigma HT5011)) for 20 mins at room temperature. Following three consecutive PBS washes (100 μl), cells were permeabilized in 0.1% Triton X-100 in PBS (Sigma 93443, 50 μl) for 15 mins at room temperature. Following three further PBS washes, 50 μl blocking buffer (1% BSA, Sigma A4503, in PBS) was added for 45 min for signal-to-noise reduction. Primary antibody (human GSPT1, Sigma HPA052488) was diluted in blocking buffer (dil. 1/300, 35 μl/well) and incubated with the cells overnight at 4° C. After three PBS washes, Alexa-fluor 488 coupled secondary antibodies (Invitrogen, A32731, dil. 1/1000), Alexa-fluor 647-Phalloïdin (Invitrogen, A22287, dil. 1/200) and DAPI (Thermo, #62248, dil.1/1000) were diluted in blocking buffer and incubated with the samples for 2 hours at room temperature. After three final PBS washes, samples were conserved in 1000 PBS in the dark, until measurement. Image acquisition was performed on the Operetta High-Content Imager (Perkin-Elmer). Fluorescence intensity of Alexa-Fluor 488 (GSPT1), Alexa-Fluor 647 (Actin) and DAPI (Nucleus) were measured. For the determination of GSPT1 DC50 values, a custom algorithm implemented in the PerkinElmer image analysis software Harmony-Acapella® was developed. After user-defined setting of adjustment parameters, the analysis was run identically without human intervention for all image fields. DAPI staining of the nuclei was used to determine the location of cells using standard nuclei detection modules. Segmentation artifacts were removed by threshold-based filters for area, roundness and intensity. The outline of the cells was determined analogously from the sum of the normalized, smoothed DAPI and Actin channel, starting from each nucleus. The Alexa-Fluor 488 (GSPT1) signal intensity in each cell was finally measured, in order to obtain a Mean intensity per cell. GSPT1 degradation (DC50) was calculated after normalization to controls and data import in CDD vault Database, using non-linear regression. Activity for GSPT1 Degradation Table 3 assigns each compound a code indicating the ability for GSPT1 degradation: A, B or C. According to the code, A represents a DC50 value of ≤100 nM, B represents a DC50 value >100 nM and ≤300 nM and C represents a DC50 value of >300 nM.

[2] = read-out: Code: activity for GSPT1 degradation (DC50)

T1 sequence (Q96SW2 whole entry): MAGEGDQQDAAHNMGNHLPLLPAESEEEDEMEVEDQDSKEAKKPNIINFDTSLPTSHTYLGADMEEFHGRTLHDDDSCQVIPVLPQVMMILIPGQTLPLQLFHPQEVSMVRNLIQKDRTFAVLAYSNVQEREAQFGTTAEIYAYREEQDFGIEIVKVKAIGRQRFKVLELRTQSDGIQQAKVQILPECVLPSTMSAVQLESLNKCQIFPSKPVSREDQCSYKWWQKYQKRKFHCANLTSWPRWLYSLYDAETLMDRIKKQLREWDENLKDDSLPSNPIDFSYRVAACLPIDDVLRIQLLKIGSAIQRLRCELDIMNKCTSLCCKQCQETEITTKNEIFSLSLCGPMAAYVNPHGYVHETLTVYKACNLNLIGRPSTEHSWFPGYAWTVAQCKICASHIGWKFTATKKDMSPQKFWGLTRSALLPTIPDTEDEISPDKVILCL
GSPT1, sequence (P15170 whole entry): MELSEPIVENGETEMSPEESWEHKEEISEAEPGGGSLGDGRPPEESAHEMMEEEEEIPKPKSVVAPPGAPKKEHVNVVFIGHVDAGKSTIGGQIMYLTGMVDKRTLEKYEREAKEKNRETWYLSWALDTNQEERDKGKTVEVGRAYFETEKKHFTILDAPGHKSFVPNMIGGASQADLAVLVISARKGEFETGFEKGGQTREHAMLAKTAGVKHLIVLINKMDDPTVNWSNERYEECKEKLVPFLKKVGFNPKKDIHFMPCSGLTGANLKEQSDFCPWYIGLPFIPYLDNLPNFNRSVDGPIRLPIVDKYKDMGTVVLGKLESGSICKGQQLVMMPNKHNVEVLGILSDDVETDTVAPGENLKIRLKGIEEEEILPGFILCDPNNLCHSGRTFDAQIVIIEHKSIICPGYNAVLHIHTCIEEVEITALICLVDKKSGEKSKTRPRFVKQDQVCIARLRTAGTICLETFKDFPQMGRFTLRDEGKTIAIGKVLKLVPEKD
GSPT1, sequence (Q96SW2 whole entry): as the sequence (Q96SW2 whole entry) above
GSPT1, sequence (Q16531 2-1140 partner limits assumed): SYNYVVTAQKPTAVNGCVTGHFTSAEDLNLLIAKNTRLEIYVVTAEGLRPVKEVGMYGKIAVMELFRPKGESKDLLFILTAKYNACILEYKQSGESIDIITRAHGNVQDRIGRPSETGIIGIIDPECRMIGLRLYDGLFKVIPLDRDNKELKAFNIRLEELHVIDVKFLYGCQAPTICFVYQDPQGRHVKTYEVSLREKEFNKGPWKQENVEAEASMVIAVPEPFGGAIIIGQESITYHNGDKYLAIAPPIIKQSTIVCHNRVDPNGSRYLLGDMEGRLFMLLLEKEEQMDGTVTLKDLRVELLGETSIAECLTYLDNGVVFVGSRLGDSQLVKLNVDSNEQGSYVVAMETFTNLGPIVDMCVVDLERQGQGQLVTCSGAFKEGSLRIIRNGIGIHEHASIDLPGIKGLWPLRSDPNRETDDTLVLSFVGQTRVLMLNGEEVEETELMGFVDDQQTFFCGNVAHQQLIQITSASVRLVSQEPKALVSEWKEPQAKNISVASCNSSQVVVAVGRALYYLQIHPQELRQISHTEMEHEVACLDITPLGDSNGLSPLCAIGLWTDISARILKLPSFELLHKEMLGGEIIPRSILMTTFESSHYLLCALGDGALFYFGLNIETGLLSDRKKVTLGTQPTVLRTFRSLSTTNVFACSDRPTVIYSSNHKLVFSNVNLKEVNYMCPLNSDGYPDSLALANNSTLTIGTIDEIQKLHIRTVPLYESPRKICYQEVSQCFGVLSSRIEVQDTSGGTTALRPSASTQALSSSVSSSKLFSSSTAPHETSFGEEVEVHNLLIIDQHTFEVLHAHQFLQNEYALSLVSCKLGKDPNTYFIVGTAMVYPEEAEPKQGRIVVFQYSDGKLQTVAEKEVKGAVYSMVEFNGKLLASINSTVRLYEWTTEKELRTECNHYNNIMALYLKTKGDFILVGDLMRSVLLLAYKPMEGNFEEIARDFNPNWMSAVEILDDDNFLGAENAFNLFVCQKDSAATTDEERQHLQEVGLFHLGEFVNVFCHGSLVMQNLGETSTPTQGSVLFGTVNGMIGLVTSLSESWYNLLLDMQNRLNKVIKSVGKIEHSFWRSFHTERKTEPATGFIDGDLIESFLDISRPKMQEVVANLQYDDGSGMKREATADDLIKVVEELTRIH

IC50 [1] | DC50 (GSPT1; [2]) | DC50 (GSPT1; GSPT1 degradation, read-out: DC50) | SMILES
1600 nM | > 300 nM | – | O=C1CCC(N2Cc3ccc(CNC(=O)Nc4cc(OC(F)(F)F)ccn4)cc3C2=O)C(=O)N1 (stereo not shown) [Compound 164]
607 nM | > 300 nM | – | Cc1c(Cl)cc(NC(=O)NCc2ccc3c(c2)C(=O)N(C2CCC(=O)NC2=O)C3)cc1C=O (stereo not shown) [Compound 156]
301 nM | > 300 nM | – | Cc1cc(NC(=O)NCc2ccc3c(c2)C(=O)N(C2CCC(=O)NC2=O)C3)no1 (stereo not shown) [Compound 97]
1840 nM | > 300 nM | – | O=C1CCC(N2Cc3ccc(CNC(=O)Nc4ccc5c(c4)OCO5)cc3C2=O)C(=O)N1 (stereo not shown) [Compound 153]
247 nM | > 300 nM | – | Cc1cc(C)c(NC(=O)NCc2ccc3c(c2)C(=O)N(C2CCC(=O)NC2=O)C3)c(C)c1Cl (stereo not shown) [Compound 107]
341 nM | > 300 nM | – | Cc1cc(NC(=O)NCc2ccc3c(c2)C(=O)N(C2CCC(=O)NC2=O)C3)sn1 (stereo not shown) [Compound 146]
1130 nM | > 300 nM | – | O=C1CCC(N2Cc3ccc(CNC(=O)Nc4cc(C(F)(F)F)ns4)cc3C2=O)C(=O)N1 (stereo not shown) [Compound 149]
240 nM | > 300 nM | – | O=C1CCC(N2Cc3ccc(CNC(=O)Nc4cccc(OC5CCNCC5)c4)cc3C2=O)C(=O)N1 (stereo not shown) [Compound 111]
676 nM | > 300 nM | – | Cc1ccc(NC(=O)NCc2ccc3c(c2)C(=O)N(C2CCC(=O)NC2=O)C3)cc1OC(F)F (stereo not shown) [Compound 159]
367 nM | > 300 nM | – | O=C1CCC(N2Cc3ccc(CNC(=O)Nc4cscn4)cc3C2=O)C(=O)N1 (stereo not shown) [Compound 99]
596 nM | ≤ 100 nM | – | COCCOc1cc(NC(=O)NCc2ccc3c(c2)C(=O)N(C2CCC(=O)NC2=O)C3)cc(Cl)c1C (stereo not shown) [Compound 125]
261 nM | ≤ 100 nM | – | Cc1c(Cl)cc(NC(=O)NCc2ccc3c(c2)C(=O)N(C2CCC(=O)NC2=O)C3)cc1OCCN1CCOCC1 (stereo not shown) [Compound 127]
317 nM | > 300 nM | – | CN(C)c1ccc(NC(=O)NCc2ccc3c(c2)C(=O)N(C2CCC(=O)NC2=O)C3)cc1 (stereo not shown) [Compound 79]
252 nM | > 300 nM | – | Cc1c(Cl)cc(NC(=O)NCc2ccc3c(c2)C(=O)N(C2CCC(=O)NC2=O)C3)cc1CN1CCC(N(C)C)CC1 (stereo not shown) [Compound 133]
283 nM | > 300 nM | – | Cc1nccn1-c1cccc(NC(=O)NCc2ccc3c(c2)C(=O)N(C2CCC(=O)NC2=O)C3)c1 (stereo not shown) [Compound 113]
284 nM | > 300 nM | – | Cc1ccc(CNC(=O)NCc2ccc3c(c2)C(=O)N(C2CCC(=O)NC2=O)C3)cc1Cl (stereo not shown) [Compound 152]
387 nM | > 300 nM | – | Cn1cc(NC(=O)NCc2ccc3c(c2)C(=O)N(C2CCC(=O)NC2=O)C3)cn1 (stereo not shown) [Compound 83]
741 nM | ≤ 100 nM | – | Cc1c(Cl)cc(NC(=O)NCc2ccc3c(c2)C(=O)N(C2CCC(=O)NC2=O)C3)cc1C[C@H]1CO[C@@H](C)OC1 (stereo partly shown) [Compound 145]

IC50 [1] | DC50 (GSPT1; [2]) | DC50 (GSPT1; GSPT1 degradation, read-out: DC50) | SMILES
325 nM | 100 to 300 nM | 224 nM | Cc1ccc(NC(=O)NCc2ccc3c(c2)C(=O)N(C2CCC(=O)NC2=O)C3)cc1CN1CCOCC1 (stereo not shown) [Compound 101, 1-((2-(2,6-dioxopiperidin-3-yl)-3-oxoisoindolin-5-yl)methyl)-3-(4-methyl-3-(morpholinomethyl)phenyl)urea]
351 nM | > 300 nM | – | Cn1ccc(NC(=O)NCc2ccc3c(c2)C(=O)N(C2CCC(=O)NC2=O)C3)n1 (stereo not shown) [Compound 88]
699 nM | > 300 nM | – | CN1CCC(Oc2cc(Cl)cc(NC(=O)NCc3ccc4c(c3)C(=O)N(C3CCC(=O)NC3=O)C4)c2)C1 (stereo not shown) [Compound 162]
408 nM | > 300 nM | – | O=C1CCC(N2Cc3ccc(CNC(=O)Nc4ccon4)cc3C2=O)C(=O)N1 (stereo not shown) [Compound 94]
243 nM | 100 to 300 nM | – | O=C1CCC(N2Cc3ccc(CNC(=O)Nc4cccc(Oc5ccccn5)c4)cc3C2=O)C(=O)N1 (stereo not shown) [Compound 121]
688 nM | – | – | Cc1c(Cl)cc(NC(=O)NCc2ccc3c(c2)C(=O)N(C2CCC(=O)NC2=O)C3)cc1CN1CCN2CCC1C2 (stereo not shown) [Compound 154]
302 nM | > 300 nM | – | O=C1CCC(N2Cc3ccc(CNC(=O)Nc4cccc(OC(=O)CN5CCOCC5)c4)cc3C2=O)C(=O)N1 (stereo not shown) [Compound 110]
348 nM | > 300 nM | – | O=C1CCC(N2Cc3ccc(CNC(=O)Nc4ccsc4)cc3C2=O)C(=O)N1 (stereo not shown) [Compound 84]
352 nM | ≤ 100 nM | – | Cc1c(Cl)cc(NC(=O)NCc2ccc3c(c2)C(=O)N(C2CCC(=O)NC2=O)C3)cc1C[C@H]1CO[C@H](C)OC1 (stereo partly shown) [Compound 141]
270 nM | > 300 nM | – | O=C1CCC(N2Cc3ccc(CNC(=O)Nc4cccc(-c5ncc[nH]5)c4)cc3C2=O)C(=O)N1 (stereo not shown) [Compound 112]
657 nM | ≤ 100 nM | – | Cc1c(Cl)cc(NC(=O)NCc2ccc3c(c2)C(=O)N(C2CCC(=O)NC2=O)C3)cc1N1CCOCC1 (stereo not shown) [Compound 122]
272 nM | > 300 nM | – | O=C1CCC(N2Cc3ccc(CNC(=O)Nc4cncs4)cc3C2=O)C(=O)N1 (stereo not shown) [Compound 103]
248 nM | > 300 nM | – | Cc1ccc(NC(=O)NCc2ccc3c(c2)C(=O)N(C2CCC(=O)NC2=O)C3)c(C)c1Cl (stereo not shown) [Compound 93]
304 nM | > 300 nM | – | O=C1CCC(N2Cc3ccc(CNC(=O)Nc4nccs4)cc3C2=O)C(=O)N1 (stereo not shown) [Compound 92]
443 nM | > 300 nM | – | O=C1CCC(N2Cc3ccc(CNC(=O)Nc4ccc(C(F)F)cc4)cc3C2=O)C(=O)N1 (stereo not shown) [Compound 114]
198 nM | > 300 nM | – | Cc1c(Cl)cc(NC(=O)NCc2ccc3c(c2)C(=O)N(C2CCC(=O)NC2=O)C3)cc1CN1CCN(C)CC1 (stereo not shown) [Compound 124]
193 nM | > 300 nM | – | Cc1c(Cl)cc(NC(=O)NCc2ccc3c(c2)C(=O)N(C2CCC(=O)NC2=O)C3)cc1CN1CCC(N2CCOCC2)CC1 (stereo not shown) [Compound 126]
559 nM | – | – | Cc1c(Cl)cc(NC(=O)NCc2ccc3c(c2)C(=O)N(C2CCC(=O)NC2=O)C3)cc1CN1CC2CCC(C1)O2 (stereo not shown) [Compound 140]

SMILES | IC50 [1] | DC50 (GSPT1; [2]) | DC50 (GSPT1; GSPT1 degradation, read-out: DC50)
O=C1CCC(N2Cc3ccc(CNC(=O)Nc4cccc(OC(F)(F)F)c4)cc3C2=O)C(=O)N1 (stereo not shown) [Compound 90] | 471 nM | ≤ 100 nM | –
